Assay results reported in patent US20240216444A1, “DESIGNED BACTERIAL COMPOSITIONS” (Seres Therapeutics, Inc., priority 2015, published 2024).
Read-outs that look alike come from different tables or passages of the source.

Columns and labels:
[1] = system: bile salt hydrolase (BSH) activity on conjugated bile acids; assay: LC-MS screen for bile salt hydrolase (BSH) activity; conditions: for BSH gCA: substrate gCA; for BSH gCDCA: substrate gCDCA; for BSH t-aMCA: substrate t-aMCA; for BSH t-bMCA: substrate t-bMCA; for BSH tCA: substrate tCA; for BSH tCDCA: substrate tCDCA
Procedure: To conduct the assay, briefly, bacteria were grown on permissive agar media plates for 24 to 48 hours to generate sufficient biomass to carry out assays. The bacterial lawns were resuspended in PBS to create a homogenous suspension that was then used for the BSH assay. To assay for BSH activity, bacterial suspensions were incubated with two separate mixtures of four distinct conjugated bile acids, each at concentration of 150 μg/ml, for 4 hours at 37° C. under anaerobic conditions. The reaction mixture was then extracted with an equal volume of acetonitrile, spun down to pellet bacteria and the supernatant filtered through a 0.2 μM filter to generate a sample for LC-MS analysis. Bile acids were determined using an Agilent 1260 HPLC coupled to a Bruker Compact qTOF MS. Samples were run on a bidentate C18 column using an acetonitrile:water buffer system to separate bile acids which were then ionized in negative mode and identified using a qTOF-MS. BSH activity was determined by the formation of deconjugated bile acid products that were verified by comparison to known standards and quantified, if necessary, using standard curves.

[2] = system: 7α-dehydroxylation of cholic acid and chenodeoxycholic acid; assay: LC-MS screen for 7α-dehydroxylation (7α-OH) activity; format: biochemical
[3] = system: C. difficile carbon sources; assay: Carbon source utilization, 87 carbon sources in three base media, OD600 and acid production (Example 3B); format: cell-based; parameters: key: “+” and “w” refer to “positive” and “weak” utilization of the carbon source, respectively; “+” and “w” refer to “positive” and “weak” utilization of the carbon source, respectively
Excerpt: Three C. difficile strains and 12 non-C. difficile bacterial strains were profiled using a panel of carbon sources. As used herein, unless otherwise indicated, carbon sources includes all sources tested as growth substrates in the experiments herein. The three C. difficile strains were Clostridium difficile ATCC 9689, Clostridium difficile ATCC 43593, and Clostridium difficile ATCC 43255, all of which are available from the American Type Culture Collection (ATCC).
Growth of the strains was tested on 87 different carbon sources in a 96-well plate format. The panel contained 34 carbon sources reported to be utilized by C. difficile in the literature (Hafiz and Oakley. 1976 J Med Microbiol 9:129-36; Wilson and Perini. 1988 Infection and Immunity 56:2610-14; Bergey and Holt. Bergey's Manual of Determinative Bacteriology. Baltimore: Williams & Wilkins, 1994; Sebaihia et al. 2006 Nature Genetics 38:779-786) including amino acids, mono-, di-, tri- and polysaccharides, glucoside and sugar alcohols. Carbon sources were added at 0.5% into three different base media (Base medium 1 SSNC composition: beef extract 1 g/L, yeast extract 2 g/L, bacto soytone 6 g/L, NaCl 4 g/L, KH2PO4 5.44 g/L, MgSO4 2 mM, CaCl2 1 mM, MnCl2 0.1 mM, cysteine hydrochloride 0.25 g/L, hemin 10 mg/L, menadione 1 mg/L, MOPS 6.3 g/L, pH 7; Base medium 2 SPOSCR composition: beef extract 1 g/L, yeast extract 2 g/L, bacto soytone 6 g/L, NaCl 4 g/L, KH2PO4 5.44 g/L, MgSO4 2 mM, CaCl2) 1 mM, MnCl2 0.1 mM, cysteine hydrochloride 0.25 g/L, hemin 10 mg/L, menadione 1 mg/L, MOPS 8.4 g/L, NaHCO3 0.4%, pH 7; Base medium 3 YCFA: casitone 10 g/L, yeast extract 2.5 g/L, cysteine hydrochloride 1 g/L, hemin 10 mg/L, ATCC vitamin solution 10 mL/L, ATCC trace element solution 10 mL/L, K2HPO4 0.45 g/L, KH2PO4 0.45 g/L, (NH4)2SO4 0.9 g/L, MgSO4×7H2O 90 mg/L, CaCl2) 90 mg/L, acetic acid 33 mM, propionic acid 9 mM, isobutyric acid 1 mM, isovaleric acid 1 mM, valeric acid 1 mM, pH 7).
Positive growth was scored by measuring optical density at 600 nm and comparing it to growth in base medium without an added carbon source. For two, base media acid production was also scored by measuring optical density at 558 nm of pH-indicator phenol red mixed with spent medium from each culture.

[4] = system: HSDH activity (7-, 3- or 12-hydroxyl groups) on cholic, chenodeoxycholic, deoxycholic and lithocholic acid; assay: LC-MS screen for hydroxysteroid dehydrogenase (HSDH) activity; format: biochemical
[5] = Indole spot test of supernatants on paper soaked with Indole Reagent; conditions: 4 μL spotted on paper soaked with Indole Reagent
[6] = system: HDAC enzymes (HeLa nuclear extract); assay: HDAC-Glo I/II assay with serial dilutions of SCFAs; format: biochemical; conditions: for HDAC inhibition activity at the highest tested concentration: 3.75 mM
Procedure: For this experiment, the HeLa nuclear extract provided in the kit was used as the source of HDAC enzymes. […] In this assay, deacetylation of the provided substrate by HDACs results in a luminescence signal that is detected with a suitable plate reader (Spectramax m5). HDAC inhibition decreases the luminescence signal compared to the no inhibitor control. The experiment was carried out according to the manufacturer's instructions as follows: 50 μL of HeLa nuclear extract diluted 1:3000 in assay buffer was mixed with 50 μL of inhibitor solution (serial dilutions of SCFAs in assay buffer) and incubated for 30 minutes. 100 μL of developer solution were added to each well, and luminescence was measured after 45 minutes of incubation at room temperature.

[7] = LC-MS, substrate chenodeoxycholic acid

Blautia producta
BSH gCA [1]: − | BSH gCDCA [1]: − | BSH t-aMCA [1]: − | BSH t-bMCA [1]: − | BSH tCA [1]: − | BSH tCDCA [1]: − | 7a Dehydrox CA ([2]; LC-MS, substrate CA): − | 7a Dehydrox CDCA ([2]; LC-MS, substrate CDCA): − | utilization of carbon source Apple pectin ([3]; Apple pectin): + | utilization of carbon source Citrus pectin ([3]; Citrus pectin): + | utilization of carbon source NAG ([3]; NAG (N-acetylglucosamine)): + | utilization of carbon source alanine ([3]; alanine): + | utilization of carbon source asparagine ([3]; asparagine): + | utilization of carbon source cellobiose ([3]; cellobiose): + | utilization of carbon source cysteine ([3]; cysteine): w | utilization of carbon source dulcitol ([3]; dulcitol): + | utilization of carbon source esculin ([3]; esculin): + | utilization of carbon source formate ([3]; formate): + | utilization of carbon source fructose ([3]; fructose): + | utilization of carbon source glucose ([3]; glucose): + | utilization of carbon source glutamine ([3]; glutamine): w | utilization of carbon source glycochenodeoxycholate ([3]; glycochenodeoxycholate): w | utilization of carbon source mannitol ([3]; mannitol): + | utilization of carbon source mannose ([3]; mannose): + | utilization of carbon source melezitose ([3]; melezitose): + | utilization of carbon source oxalate ([3]; oxalate): w | utilization of carbon source polygalacturonate ([3]; polygalacturonate): + | utilization of carbon source rhamnose ([3]; rhamnose): + | utilization of carbon source ribose ([3]; ribose): + | utilization of carbon source salicin ([3]; salicin): + | utilization of carbon source serine ([3]; serine): + | utilization of carbon source sialic acid ([3]; sialic acid): + | utilization of carbon source sorbitol ([3]; sorbitol): + | utilization of carbon source sucrose ([3]; sucrose): + | utilization of carbon source taurochenodeoxycholate ([3]; taurochenodeoxycholate): w | utilization of carbon source threonine ([3]; threonine): w | utilization of carbon source trehalose ([3]; trehalose): + | utilization of carbon source xylitol ([3]; xylitol): + | utilization of carbon source xylose ([3]; xylose): + | HSDH 3a ([4]; LC-MS): − | HSDH 7a ([4]; LC-MS): − | HSDH 12a ([4]; LC-MS): −

Clostridium symbiosum
BSH gCA [1]: +/− (‘+/−’ indicates ≤50-fold change in product bile acid levels, suggesting weak activity) | BSH gCDCA [1]: + (‘+’ indicates greater than 50-fold increase in levels of product bile acid, suggesting strong activity) | BSH t-aMCA [1]: − | BSH t-bMCA [1]: − | BSH tCA [1]: − | BSH tCDCA [1]: +/− (‘+/−’ indicates ≤50-fold change in product bile acid levels, suggesting weak activity) | 7a Dehydrox CDCA [2, 7]: − | 7a Dehydrox CA ([2]; LC-MS, substrate cholic acid): − | HSDH 3a ([4]; LC-MS, 3a-HSDH): +/− (‘+/−’ indicates ≤50-fold change in product bile acid levels, suggesting weak activity) | HSDH 7a ([4]; LC-MS, 7a-HSDH): + (‘+’ indicates greater than 50-fold increase in levels of product bile acid, suggesting strong activity) | HSDH 12a ([4]; LC-MS, 12a-HSDH): −

O=C(O)CCc1c[nH]c2ccccc12 [indole-3-propionic acid]
colour in indole spot test [5]: purple spots

O=C(O)CCCc1c[nH]c2ccccc12 [indole-3-butyric acid]
colour in indole spot test [5]: purple spots

Blautia_producta
7a Dehydrox CDCA [2, 7]: − | 7a Dehydrox CA ([2]; LC-MS, substrate cholic acid): − | HSDH 3a ([4]; LC-MS, 3a-HSDH): − | HSDH 7a ([4]; LC-MS, 7a-HSDH): − | HSDH 12a ([4]; LC-MS, 12a-HSDH): −

Clostridium_glycolicum
BSH gCA [1]: + (‘+’ indicates greater than 50-fold increase in levels of product bile acid, suggesting strong activity) | BSH gCDCA [1]: + (‘+’ indicates greater than 50-fold increase in levels of product bile acid, suggesting strong activity) | BSH t-aMCA [1]: + (‘+’ indicates greater than 50-fold increase in levels of product bile acid, suggesting strong activity) | BSH t-bMCA [1]: + (‘+’ indicates greater than 50-fold increase in levels of product bile acid, suggesting strong activity) | BSH tCA [1]: + (‘+’ indicates greater than 50-fold increase in levels of product bile acid, suggesting strong activity) | BSH tCDCA [1]: + (‘+’ indicates greater than 50-fold increase in levels of product bile acid, suggesting strong activity)

CC(=O)O [acetate]
HDAC inhibition activity at the highest tested concentration [6]: minimal HDAC inhibition activity

Clostridium butyricum
7a Dehydrox CA [2]: − | 7a Dehydrox CDCA [2]: − | HSDH 3a [4]: − | HSDH 12a [4]: −

Clostridium paraputrificum
BSH gCA [1]: + (‘+’ indicates greater than 50-fold increase in levels of product bile acid, suggesting strong activity) | BSH gCDCA [1]: + (‘+’ indicates greater than 50-fold increase in levels of product bile acid, suggesting strong activity) | BSH t-aMCA [1]: + (‘+’ indicates greater than 50-fold increase in levels of product bile acid, suggesting strong activity) | BSH t-bMCA [1]: + (‘+’ indicates greater than 50-fold increase in levels of product bile acid, suggesting strong activity) | BSH tCA [1]: + (‘+’ indicates greater than 50-fold increase in levels of product bile acid, suggesting strong activity) | BSH tCDCA [1]: + (‘+’ indicates greater than 50-fold increase in levels of product bile acid, suggesting strong activity)

Cc1c[nH]c2ccccc12 [3-methyl-indole]
colour in indole spot test [5]: purple spots

CC(O)C(=O)O (centres unmarked) [Lactate]
HDAC inhibition activity at the highest tested concentration [6]: minimal HDAC inhibition activity

Clostridium_sordellii
BSH gCA [1]: + (‘+’ indicates greater than 50-fold increase in levels of product bile acid, suggesting strong activity) | BSH gCDCA [1]: + (‘+’ indicates greater than 50-fold increase in levels of product bile acid, suggesting strong activity) | BSH t-aMCA [1]: + (‘+’ indicates greater than 50-fold increase in levels of product bile acid, suggesting strong activity) | BSH t-bMCA [1]: + (‘+’ indicates greater than 50-fold increase in levels of product bile acid, suggesting strong activity) | BSH tCA [1]: + (‘+’ indicates greater than 50-fold increase in levels of product bile acid, suggesting strong activity) | BSH tCDCA [1]: + (‘+’ indicates greater than 50-fold increase in levels of product bile acid, suggesting strong activity) | 7a Dehydrox CDCA [2, 7]: − | 7a Dehydrox CA ([2]; LC-MS, substrate cholic acid): − | HSDH 3a ([4]; LC-MS, 3a-HSDH): +/− (‘+/−’ indicates ≤50-fold change in product bile acid levels, suggesting weak activity) | HSDH 7a ([4]; LC-MS, 7a-HSDH): − | HSDH 12a ([4]; LC-MS, 12a-HSDH): −

Clostridium sp_7_2_43FAA
7a Dehydrox CDCA [2, 7]: − | 7a Dehydrox CA ([2]; LC-MS, substrate cholic acid): − | HSDH 3a ([4]; LC-MS, 3a-HSDH): +/− (‘+/−’ indicates ≤50-fold change in product bile acid levels, suggesting weak activity) | HSDH 7a ([4]; LC-MS, 7a-HSDH): + (‘+’ indicates greater than 50-fold increase in levels of product bile acid, suggesting strong activity) | HSDH 12a ([4]; LC-MS, 12a-HSDH): −

NCCc1c[nH]c2ccccc12 [tryptamine]
colour in indole spot test [5]: purple spots

CCC(=O)O [propionate]
IC50 ([6]; HeLa nuclear extract, HDAC-Glo I/II, read-out: HDAC inhibition IC50): 2400 µM

c1ccc2[nH]ccc2c1 [Indole, indole]
colour in indole spot test [5]: light blue color
